According to ChEMBL document CHEMBL1201862, “PubChem BioAssay data set” (2004):
Activity calls are given as the source filed them.

Columns and labels:
[1] = target: Large T antigen (Simian virus 40, UniProt P03070); assay type: functional, Betapolyomavirus macacae;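 also: Confirmatory-stage PubChem screen for compounds that inhibit SV40 T antigen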
[2] = target: Albumin (Bos taurus, UniProt P02769); assay: Counterscreen for inhibitors of T-cell receptor (TCR)-CD3 interaction: Fluorescence-based biochemical high throughput dose response assay to identify inhibitors of T-cell receptor (TCR)-CD3 interaction using a TAMRA-labeled BSA probe.; assay type: functional
Chain of Albumin (P02769 whole entry): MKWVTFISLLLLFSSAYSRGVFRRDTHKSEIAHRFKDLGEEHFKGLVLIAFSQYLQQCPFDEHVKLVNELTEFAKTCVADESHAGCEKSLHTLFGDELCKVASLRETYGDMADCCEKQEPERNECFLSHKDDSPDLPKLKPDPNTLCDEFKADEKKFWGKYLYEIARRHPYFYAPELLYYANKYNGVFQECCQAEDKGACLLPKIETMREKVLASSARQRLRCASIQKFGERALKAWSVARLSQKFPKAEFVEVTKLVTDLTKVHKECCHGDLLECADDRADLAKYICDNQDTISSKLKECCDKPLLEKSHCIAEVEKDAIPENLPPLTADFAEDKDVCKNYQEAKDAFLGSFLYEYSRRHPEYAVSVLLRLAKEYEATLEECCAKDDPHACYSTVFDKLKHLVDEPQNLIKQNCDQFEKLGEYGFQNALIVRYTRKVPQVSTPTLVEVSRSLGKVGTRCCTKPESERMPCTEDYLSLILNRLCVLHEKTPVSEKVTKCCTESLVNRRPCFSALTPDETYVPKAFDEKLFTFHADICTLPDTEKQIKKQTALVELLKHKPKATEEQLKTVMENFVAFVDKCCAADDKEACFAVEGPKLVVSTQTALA

[3] = target: T1, Caspase-6 (Homo sapiens, UniProt P55212); assay: human caspase-6 inhibitors, dose response, biochemical, VEID-R110 fluorescence, cherry-pick (AID 720632)
T1 sequence (P55212 whole entry): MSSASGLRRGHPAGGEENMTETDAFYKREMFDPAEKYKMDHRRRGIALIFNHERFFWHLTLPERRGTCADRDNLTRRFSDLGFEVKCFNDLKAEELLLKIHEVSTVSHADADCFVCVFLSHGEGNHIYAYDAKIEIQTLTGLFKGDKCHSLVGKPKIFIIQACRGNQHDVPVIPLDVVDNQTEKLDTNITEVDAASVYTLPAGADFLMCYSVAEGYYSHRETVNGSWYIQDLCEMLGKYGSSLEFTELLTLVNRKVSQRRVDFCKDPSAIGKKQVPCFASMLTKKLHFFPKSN

[4] = target: Intestinal-type alkaline phosphatase (Mus musculus, UniProt P24822); assay: mouse intestinal alkaline phosphatase activators, dose response, biochemical, luminescence, uHTS hits (AID 488783); assay type: functional
[5] = target: Caspase-7 (Homo sapiens, UniProt P55210); assay: human caspase-7 inhibitors, dose response, selectivity assay for caspase-6 inhibitor project, biochemical, DEVD-R110 fluorescence, cherry-pick (AID 743295)
[6] = target: Eukaryotic translation initiation factor 4H (Homo sapiens, UniProt Q15056); assay: human eIF4H binding inhibitors, primary screen, translation initiation inhibitor project, biochemical, uHTS, fluorescence polarization (AID 2012)
[7] = target: Ras and Rab interactor 1/Tyrosine-protein kinase ABL1 (Homo sapiens, UniProt P00519+Q13671); assay type: functional;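 also: biochemical TR-FRET dose-response test measuring inhibition of binding between Rin1 and Abl proteins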
Chain of Ras and Rab interactor 1/Tyrosine-protein kinase ABL1 (P00519 whole entry): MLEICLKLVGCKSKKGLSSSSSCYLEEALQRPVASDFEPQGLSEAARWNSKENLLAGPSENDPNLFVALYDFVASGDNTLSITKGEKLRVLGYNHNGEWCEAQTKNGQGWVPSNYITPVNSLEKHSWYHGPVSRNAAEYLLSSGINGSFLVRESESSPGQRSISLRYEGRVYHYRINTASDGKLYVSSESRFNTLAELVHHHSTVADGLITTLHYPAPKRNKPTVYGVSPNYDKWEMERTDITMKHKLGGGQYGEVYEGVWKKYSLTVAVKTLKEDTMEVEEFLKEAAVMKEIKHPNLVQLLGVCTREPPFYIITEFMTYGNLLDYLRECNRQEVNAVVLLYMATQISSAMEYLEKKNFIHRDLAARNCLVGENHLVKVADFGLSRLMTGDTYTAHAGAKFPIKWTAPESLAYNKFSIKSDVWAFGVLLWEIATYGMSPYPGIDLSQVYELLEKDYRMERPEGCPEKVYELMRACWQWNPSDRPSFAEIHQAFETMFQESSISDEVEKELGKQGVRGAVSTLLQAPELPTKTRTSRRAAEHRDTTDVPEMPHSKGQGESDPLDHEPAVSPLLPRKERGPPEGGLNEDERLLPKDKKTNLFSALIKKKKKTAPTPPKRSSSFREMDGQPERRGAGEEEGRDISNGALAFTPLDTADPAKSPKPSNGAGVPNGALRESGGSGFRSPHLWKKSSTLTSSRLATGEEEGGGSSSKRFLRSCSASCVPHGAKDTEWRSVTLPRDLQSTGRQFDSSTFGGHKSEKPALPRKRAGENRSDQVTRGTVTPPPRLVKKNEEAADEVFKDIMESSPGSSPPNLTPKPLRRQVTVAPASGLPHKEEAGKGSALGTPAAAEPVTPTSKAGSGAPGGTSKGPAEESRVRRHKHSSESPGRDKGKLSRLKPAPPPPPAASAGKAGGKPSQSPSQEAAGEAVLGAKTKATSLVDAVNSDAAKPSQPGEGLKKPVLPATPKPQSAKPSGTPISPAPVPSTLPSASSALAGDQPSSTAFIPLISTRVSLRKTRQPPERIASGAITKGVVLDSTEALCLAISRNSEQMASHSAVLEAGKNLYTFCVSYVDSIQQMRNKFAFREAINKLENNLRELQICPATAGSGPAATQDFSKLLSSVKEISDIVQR
Chain of Ras and Rab interactor 1/Tyrosine-protein kinase ABL1 (Q13671 whole entry): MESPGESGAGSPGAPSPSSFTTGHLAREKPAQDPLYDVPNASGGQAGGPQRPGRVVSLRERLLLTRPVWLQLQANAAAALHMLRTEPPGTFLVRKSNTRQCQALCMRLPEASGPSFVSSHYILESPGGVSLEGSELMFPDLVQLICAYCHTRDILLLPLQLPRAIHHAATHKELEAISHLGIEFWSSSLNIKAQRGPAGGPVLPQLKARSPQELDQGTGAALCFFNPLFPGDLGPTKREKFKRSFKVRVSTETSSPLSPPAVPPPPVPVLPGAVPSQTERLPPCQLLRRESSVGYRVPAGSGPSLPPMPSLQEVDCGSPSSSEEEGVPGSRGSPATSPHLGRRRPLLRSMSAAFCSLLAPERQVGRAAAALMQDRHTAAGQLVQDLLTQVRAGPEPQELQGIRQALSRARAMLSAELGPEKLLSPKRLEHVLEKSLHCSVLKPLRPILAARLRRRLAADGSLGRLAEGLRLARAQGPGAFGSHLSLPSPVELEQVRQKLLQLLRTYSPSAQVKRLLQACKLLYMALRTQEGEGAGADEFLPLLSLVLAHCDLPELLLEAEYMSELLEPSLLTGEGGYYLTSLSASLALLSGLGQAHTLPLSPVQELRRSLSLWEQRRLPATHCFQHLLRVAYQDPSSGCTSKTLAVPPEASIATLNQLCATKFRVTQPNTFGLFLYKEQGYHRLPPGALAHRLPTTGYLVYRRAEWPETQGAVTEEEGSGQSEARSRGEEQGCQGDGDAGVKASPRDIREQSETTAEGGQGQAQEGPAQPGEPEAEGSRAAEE

[8] = target: Polyadenylate-binding protein 1 (Homo sapiens, UniProt P11940); assay: PABP poly(A) RNA binding inhibitors, primary screen, biochemical, fluorescence polarization, uHTS (AID 2014)
[9] = target: Induced myeloid leukemia cell differentiation protein Mcl-1 (Homo sapiens, UniProt Q07820); assay type: functional
Chain of Induced myeloid leukemia cell differentiation protein Mcl-1 (Q07820 whole entry): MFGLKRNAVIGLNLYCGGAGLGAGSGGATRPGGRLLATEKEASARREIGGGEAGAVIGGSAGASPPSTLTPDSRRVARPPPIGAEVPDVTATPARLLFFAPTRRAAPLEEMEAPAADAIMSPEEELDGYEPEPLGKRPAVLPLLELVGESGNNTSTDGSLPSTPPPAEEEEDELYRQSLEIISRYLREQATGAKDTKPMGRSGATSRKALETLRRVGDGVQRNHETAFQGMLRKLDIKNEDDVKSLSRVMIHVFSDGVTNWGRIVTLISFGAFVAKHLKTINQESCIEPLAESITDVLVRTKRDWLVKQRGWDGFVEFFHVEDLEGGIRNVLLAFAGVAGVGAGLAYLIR

[10] = target: Intestinal-type alkaline phosphatase (Homo sapiens, UniProt P09923); assay: activation of human intestinal alkaline phosphatase – biochemical, dose response (AID 488873); assay type: functional
[11] = target: T2, Alkaline phosphatase, tissue-nonspecific isozyme (Homo sapiens, UniProt P05186); assay: TNAP enzyme activators, dose response, selectivity assay for mouse IAP activator project, biochemical, TNAP isozyme, mouse IAP uHTS hits (AID 488880); assay type: functional
T2 sequence (P05186 whole entry): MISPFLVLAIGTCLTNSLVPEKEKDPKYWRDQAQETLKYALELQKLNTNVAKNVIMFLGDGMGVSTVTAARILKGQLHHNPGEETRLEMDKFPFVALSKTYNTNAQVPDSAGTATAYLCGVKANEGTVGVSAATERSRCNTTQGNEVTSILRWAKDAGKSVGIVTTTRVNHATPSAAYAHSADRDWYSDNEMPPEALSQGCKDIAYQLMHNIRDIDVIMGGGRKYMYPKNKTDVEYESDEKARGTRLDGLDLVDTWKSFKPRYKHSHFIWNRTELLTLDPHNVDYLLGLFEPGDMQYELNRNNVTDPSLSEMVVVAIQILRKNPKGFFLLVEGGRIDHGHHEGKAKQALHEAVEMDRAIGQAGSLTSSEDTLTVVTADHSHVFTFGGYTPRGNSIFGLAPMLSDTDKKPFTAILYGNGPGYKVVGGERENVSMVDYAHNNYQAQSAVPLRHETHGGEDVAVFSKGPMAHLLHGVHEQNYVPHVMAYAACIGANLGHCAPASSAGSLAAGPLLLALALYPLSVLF

[12] = target: T3, G-protein coupled receptor 55 (Homo sapiens, UniProt Q9Y2T6); assay: GPR55 antagonist potency of analogs, SAR follow-up, imaging, U2OS, beta-arrestin-GFP, LPI agonist, set 2 (AID 2820); assay type: functional
T3 sequence (Q9Y2T6 whole entry): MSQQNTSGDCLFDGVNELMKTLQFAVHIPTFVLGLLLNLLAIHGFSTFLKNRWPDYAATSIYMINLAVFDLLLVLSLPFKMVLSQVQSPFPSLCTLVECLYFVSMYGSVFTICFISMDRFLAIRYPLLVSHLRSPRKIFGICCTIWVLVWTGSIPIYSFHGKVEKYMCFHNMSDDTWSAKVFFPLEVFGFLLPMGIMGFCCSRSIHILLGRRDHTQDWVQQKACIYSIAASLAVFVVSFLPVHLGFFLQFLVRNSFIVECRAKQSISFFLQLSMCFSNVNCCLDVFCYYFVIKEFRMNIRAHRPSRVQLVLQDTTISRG

[13] = target: T3, G-protein coupled receptor 55; assay: GPR55 antagonists blocking LPI-driven arrestin recruitment, primary screen, imaging, U2OS, beta-arrestin-GFP, LPI agonist (AID 2013); assay type: functional;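 also: antagonist potency measured as reduced agonist-driven arrestin aggregation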
[14] = target: T4, Streptokinase A (Streptococcus pyogenes serotype M1, UniProt P10520); assay: S. pyogenes streptokinase expression inhibitors, potency, dose response, plasminogen activation absorbance, OD405 (AID 1914); assay type: functional, Streptococcus pyogenes M1 GAS;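 also: secreted streptokinase activity via plasminogen activation per viability signal from cell pellet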
T4 sequence (P10520 whole entry): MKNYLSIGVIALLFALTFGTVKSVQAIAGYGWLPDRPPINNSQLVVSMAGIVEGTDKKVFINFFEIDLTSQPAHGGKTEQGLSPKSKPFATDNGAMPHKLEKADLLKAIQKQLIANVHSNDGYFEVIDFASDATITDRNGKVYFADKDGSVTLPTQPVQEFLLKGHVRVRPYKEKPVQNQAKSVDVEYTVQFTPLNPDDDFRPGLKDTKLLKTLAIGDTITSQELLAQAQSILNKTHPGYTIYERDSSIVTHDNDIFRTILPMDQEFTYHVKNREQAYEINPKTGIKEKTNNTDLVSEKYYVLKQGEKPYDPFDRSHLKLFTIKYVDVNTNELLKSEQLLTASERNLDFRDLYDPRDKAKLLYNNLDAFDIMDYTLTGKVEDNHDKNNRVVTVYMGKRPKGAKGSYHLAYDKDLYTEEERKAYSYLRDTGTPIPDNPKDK

[15] = target: T5, Cannabinoid receptor 1 (Homo sapiens, UniProt P21554); assay: SAR analysis of antagonists of the Cannabinoid Receptor 1 using an Image-Based Assay - Set 2. [Related pubchem assays (depositor defined):AID2013, AID2026]; assay type: functional
T5 sequence (P21554 whole entry): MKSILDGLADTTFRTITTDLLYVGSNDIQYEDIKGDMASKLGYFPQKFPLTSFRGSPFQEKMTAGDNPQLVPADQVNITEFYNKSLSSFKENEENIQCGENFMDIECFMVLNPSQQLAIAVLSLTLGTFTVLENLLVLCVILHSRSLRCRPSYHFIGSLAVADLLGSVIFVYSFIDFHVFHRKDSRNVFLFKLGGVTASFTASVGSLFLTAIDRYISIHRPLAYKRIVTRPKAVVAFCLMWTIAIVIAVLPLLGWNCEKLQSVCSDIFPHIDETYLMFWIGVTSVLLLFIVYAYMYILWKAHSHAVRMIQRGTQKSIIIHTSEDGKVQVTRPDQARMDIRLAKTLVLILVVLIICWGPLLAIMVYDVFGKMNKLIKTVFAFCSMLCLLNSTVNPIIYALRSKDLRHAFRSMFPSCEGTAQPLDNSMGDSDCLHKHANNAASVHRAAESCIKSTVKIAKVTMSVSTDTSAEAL

[16] = target: T6, G-protein coupled receptor 35 (Homo sapiens, UniProt Q9HC97); assay: SAR analysis of Agonists of the GPR35 Receptor using an Image-Based Assay - Set 2. [Related pubchem assays (depositor defined):AID2013, AID2026]; assay type: functional
T6 sequence (Q9HC97 whole entry): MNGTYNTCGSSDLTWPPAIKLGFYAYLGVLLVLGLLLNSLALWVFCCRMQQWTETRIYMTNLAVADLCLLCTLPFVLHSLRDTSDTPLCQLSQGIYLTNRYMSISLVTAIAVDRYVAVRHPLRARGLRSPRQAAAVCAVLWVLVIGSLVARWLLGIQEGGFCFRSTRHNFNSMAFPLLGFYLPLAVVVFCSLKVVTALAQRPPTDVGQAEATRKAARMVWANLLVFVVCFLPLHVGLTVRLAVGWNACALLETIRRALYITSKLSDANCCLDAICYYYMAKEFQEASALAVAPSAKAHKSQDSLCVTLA

[17] = target: T6, G-protein coupled receptor 35; assay: SAR analysis of Antagonists of the GPR35 Receptor using an Image-Based Assay - Set 3. [Related pubchem assays (depositor defined):AID2013, AID2026]; assay type: functional
[18] = target: T7, Cannabinoid receptor 2 (Homo sapiens, UniProt P34972); assay: SAR analysis of antagonists of the Cannabinoid Receptor 2 using an Image-Based Assay. [Related pubchem assays (depositor defined):AID2013, AID2026]; assay type: functional
T7 sequence (P34972 whole entry): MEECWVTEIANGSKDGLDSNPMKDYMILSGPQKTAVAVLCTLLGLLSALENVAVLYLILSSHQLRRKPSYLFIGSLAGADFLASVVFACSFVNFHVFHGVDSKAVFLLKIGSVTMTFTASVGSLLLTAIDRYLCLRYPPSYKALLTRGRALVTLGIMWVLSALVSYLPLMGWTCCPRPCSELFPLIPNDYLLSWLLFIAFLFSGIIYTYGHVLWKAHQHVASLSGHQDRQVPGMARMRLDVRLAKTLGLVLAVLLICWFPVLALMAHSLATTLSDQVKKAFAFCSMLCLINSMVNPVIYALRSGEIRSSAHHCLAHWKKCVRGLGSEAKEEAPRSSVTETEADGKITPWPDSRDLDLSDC

[19] = target: T5, Cannabinoid receptor 1; assay: SAR analysis of agonists of the Cannabinoid Receptor 1 using an Image-Based Assay - Set 2. [Related pubchem assays (depositor defined):AID2013, AID2026]; assay type: functional
[20] = target: T7, Cannabinoid receptor 2; assay: SAR analysis of agonists of the Cannabinoid Receptor 2 using an Image-Based Assay. [Related pubchem assays (depositor defined):AID2013, AID2026]; assay type: functional
[21] = target: Mu-type opioid receptor (Homo sapiens, UniProt P35372); assay: SAR Analysis of Antagonists of the MOR Receptor using an Image-Based Assay - Set 3. [Related pubchem assays (depositor defined):AID1777, AID1785, AID1786, AID1966, AID2133, AID2136, AID2284, AID2285, AID2420]; assay type: functional
[22] = target: Delta-type opioid receptor (Homo sapiens, UniProt P41143); assay: SAR Analysis of Antagonists of the DOR Receptor using an Image-Based Assay - Set 3. [Related pubchem assays (depositor defined):AID1777, AID1785]; assay type: functional;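 also: U2OS cells expressing DOR1 and beta-arrestin GFP stimulated with 100 nM SNC80; imaging of GFP-tagged beta-arrestin moving into spots after receptor activation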
[23] = target: T8, Kappa-type opioid receptor (Homo sapiens, UniProt P41145); assay: SAR analysis of small molecule agonists of the kappa opioid receptor via a luminescent beta-arrestin assay - Set 3. [Related pubchem assays (depositor defined):AID1777, AID1785, AID1786, AID1966, AID2133, AID2136, AID2284, AID2500]; assay type: functional
T8 sequence (P41145 whole entry): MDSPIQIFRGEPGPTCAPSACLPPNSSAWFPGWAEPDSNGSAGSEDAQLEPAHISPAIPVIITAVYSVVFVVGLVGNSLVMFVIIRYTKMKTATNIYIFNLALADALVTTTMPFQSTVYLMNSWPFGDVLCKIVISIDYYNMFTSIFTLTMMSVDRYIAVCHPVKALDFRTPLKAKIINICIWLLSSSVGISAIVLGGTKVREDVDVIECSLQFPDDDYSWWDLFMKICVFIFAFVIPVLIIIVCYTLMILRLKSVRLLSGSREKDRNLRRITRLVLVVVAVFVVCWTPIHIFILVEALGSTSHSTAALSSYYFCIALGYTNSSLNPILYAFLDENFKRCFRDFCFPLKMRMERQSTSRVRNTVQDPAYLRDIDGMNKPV

[24] = target: T8, Kappa-type opioid receptor; assay: SAR analysis of Antagonists of the Kappa Opioid Receptor (KOR) using an Image-Based Assay - Set 4. [Related pubchem assays (depositor defined):AID1777, AID1785]; assay type: functional
[25] = target: T9, Tyrosine-protein phosphatase non-receptor type 22 (Homo sapiens, UniProt Q9Y2R2); assay: SAR LYP1 Fluorescent Assay using OMFP substrate for In Vitro dose response studies - Set 3. [Related pubchem assays (depositor defined):AID1779, AID1784, AID2140, AID2686]; assay type: functional
T9 sequence (Q9Y2R2 whole entry): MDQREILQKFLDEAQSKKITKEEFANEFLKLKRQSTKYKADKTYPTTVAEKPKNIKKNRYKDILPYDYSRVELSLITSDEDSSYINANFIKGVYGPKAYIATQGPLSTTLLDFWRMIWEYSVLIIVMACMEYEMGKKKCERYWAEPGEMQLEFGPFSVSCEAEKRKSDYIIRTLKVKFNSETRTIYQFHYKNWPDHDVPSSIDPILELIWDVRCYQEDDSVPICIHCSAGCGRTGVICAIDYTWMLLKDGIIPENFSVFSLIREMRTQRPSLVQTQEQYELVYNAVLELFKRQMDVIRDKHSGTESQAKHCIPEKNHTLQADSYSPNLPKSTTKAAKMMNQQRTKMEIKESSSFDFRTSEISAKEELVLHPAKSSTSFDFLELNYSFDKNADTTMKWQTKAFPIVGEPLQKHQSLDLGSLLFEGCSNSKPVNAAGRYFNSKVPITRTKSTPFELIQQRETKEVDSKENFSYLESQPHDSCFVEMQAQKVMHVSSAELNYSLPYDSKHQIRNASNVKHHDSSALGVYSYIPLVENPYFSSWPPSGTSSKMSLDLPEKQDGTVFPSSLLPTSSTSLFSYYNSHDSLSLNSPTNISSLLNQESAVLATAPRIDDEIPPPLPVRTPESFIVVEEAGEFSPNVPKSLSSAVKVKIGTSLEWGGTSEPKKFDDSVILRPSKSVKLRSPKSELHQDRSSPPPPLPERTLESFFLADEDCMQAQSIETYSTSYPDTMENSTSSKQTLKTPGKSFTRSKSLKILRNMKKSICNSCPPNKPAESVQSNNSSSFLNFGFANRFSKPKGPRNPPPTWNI

[26] = target: T9, Tyrosine-protein phosphatase non-receptor type 22; assay: SAR LYP1 Fluorescent Assay using pCAP substrate for In Vitro dose response studies - Set 2. [Related pubchem assays (depositor defined):AID1779, AID1784, AID2135, AID449727]; assay type: functional
[27] = target: T9, Tyrosine-protein phosphatase non-receptor type 22; assay: SAR LYP1 Fluorescent Assay using OMFP substrate for In Vitro dose response studies - Set 2. [Related pubchem assays (depositor defined):AID1779, AID1784, AID2140, AID449726, AID488869]; assay type: functional
[28] = target: Tyrosine-protein phosphatase non-receptor type 12 (Homo sapiens, UniProt Q05209); assay: SAR Selectivity Analysis of small molecule inhibitors of PEST using pCAP in a fluorescence assay. [Related pubchem assays (depositor defined):AID1779, AID1784, AID2135]; assay type: functional
[29] = target: T10, Tyrosine-protein phosphatase non-receptor type 7 (Homo sapiens, UniProt P35236); assay: HePTP (PTPN7) phosphatase inhibitor potency, SAR follow-up, biochemical, set 2 (AID 449736); assay type: functional
T10 sequence (P35236 whole entry): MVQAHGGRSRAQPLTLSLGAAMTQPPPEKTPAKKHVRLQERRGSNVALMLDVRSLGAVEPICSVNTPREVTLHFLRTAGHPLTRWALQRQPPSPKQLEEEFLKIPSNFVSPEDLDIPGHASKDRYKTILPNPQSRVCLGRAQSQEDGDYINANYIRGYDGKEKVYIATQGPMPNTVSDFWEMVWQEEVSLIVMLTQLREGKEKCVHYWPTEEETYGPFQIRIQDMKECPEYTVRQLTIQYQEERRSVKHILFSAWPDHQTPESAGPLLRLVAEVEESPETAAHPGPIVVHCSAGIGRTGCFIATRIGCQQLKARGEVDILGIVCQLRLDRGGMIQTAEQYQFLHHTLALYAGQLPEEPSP

[30] = target: T9, Tyrosine-protein phosphatase non-receptor type 22; assay: LYP (PTPN22) phosphatase inhibitor potency, SAR follow-up, biochemical, pCAP fluorogenic substrate, fluorescence, set 3 (AID 449727); assay type: functional

O=C(O)CC(CCc1ccccc1)OC1OC(CO)C(O)C(O)C1O (stereo not given)
IC50 [1]: 57.6 µM (active) | IC50 [2]: > 94.1 µM (inactive) | AC50 [3]: 0.283 µM (active) | EC50 [4]: 33.7 µM (active) | AC50 [5]: 30.9 µM (active) | IC50 [6]: 23.6 µM (active) | IC50 [7]: 50.2 µM (inactive) | IC50 [8]: 69.4 µM (active) | IC50 [9]: 1.61 µM (active) | EC50 [10]: 59.2 µM (active) | EC50 [11]: 57.6 µM (active)

COc1ccc(NS(=O)(=O)c2ccc3nc(COc4cccc5ccccc45)[nH]c3c2)cc1
IC50 [12]: 1.45 µM (active) | IC50 [13]: 1.76 µM (active) | EC50 [14]: 6.16 µM (active) | IC50 [15]: 2.24 µM (active) | EC50 [16]: > 32 µM (inactive) | IC50 [17]: > 32 µM (inactive) | IC50 [18]: > 32 µM (inactive) | EC50 [19]: > 32 µM (inactive) | EC50 [20]: > 32 µM (inactive)

CC(C)OC(=O)C1(N(Cc2ccco2)C(=O)c2ccccn2)CCCCC1
IC50 [21]: 15 µM (inactive) | IC50 [22]: > 32 µM (inactive) | EC50 [23]: > 20 µM (inactive) | IC50 [24]: > 32 µM (inactive)

O=C(O)COc1ccccc1/C=N/NC(=O)c1ccc(-c2csc(Nc3ccc(Cl)cc3)n2)cc1
IC50 [25]: 1.29 µM (active) | IC50 [26]: 4.1 µM (active) | IC50 [27]: 5.67 µM (active) | IC50 [28]: 1.49 µM (active) | IC50 [29]: 0.841 µM (active) | IC50 [30]: 3.5 µM (active)
